Measurements: PMC8241176, “Preliminary study on fabrication, characterization and synergistic anti-lung cancer effects of self-assembled micelles of covalently conjugated celastrol–polyethylene glycol–ginsenoside Rh2” (Drug Delivery, 2017)

Tested on: A549 cells
Experiment: Antiproliferative effect by MTT assay
Format: cell-based, human
Conditions: 48 h, G Rh2 6.4 μg/mL
Experimental: The human NSCLC cell line, A549, was cultured in RPMI 1640 medium containing 10% FBS at 37 °C and 5% CO2 in an incubator with saturated humidity. The medium was replaced every 2 days and the cells were passaged at the split ratio of 1:8 every 5–7 days. Cells grown to the logarithmic growth phase were harvested for further experiments.
The A549 cells were seeded in a 96-well plate at 5 × 10^3 cells/well and incubated for 24 h. The medium was then discarded and each well received 100 μL of different concentrations of CG-M, CG-Mblank, celastrol + G Rh2, celastrol and G Rh2. After 48 h of incubation, 100 μL of 0.5 mg/mL MTT in phosphate-buffered saline (PBS) was added to each well, followed by 4 h of incubation in the dark. […] The plate was shaken at low speed for 3 min, and the absorbance at 570 nm was measured using a microplate reader to calculate cell viability. Cell viability (%) = Absorbance of the drug treatment group (Adrug)/Absorbance of the control group (Acontrol) × 100. The IC50 was calculated by GraphPad prism 6.0 software (GraphPad Software Inc., San Diego, CA). The combined index (CI) was calculated with the following formula: CI = IC50 of celastrol in combination group/IC50 of celastrol + IC50 of G Rh2 in combination group/IC50 of G Rh2 (Qu et al., [2017]; Wu et al., [2017]), which represents a synergistic antitumor effect if the value is less than 1.

CC(C)=CCC[C@](C)(O)[C@H]1CC[C@]2(C)[C@@H]1[C@H](O)C[C@@H]1[C@@]3(C)CC[C@H](O[C@@H]4O[C@H](CO)[C@@H](O)[C@H](O)[C@H]4O)C(C)(C)[C@@H]3CC[C@]12C [G Rh2, ginsenoside Rh2]
survival rate of cells: 67.5%
